Assay [1] addresses T1, Proteinase-activated receptor 1 (Homo sapiens, UniProt P25116).
T1 sequence (P25116 whole entry): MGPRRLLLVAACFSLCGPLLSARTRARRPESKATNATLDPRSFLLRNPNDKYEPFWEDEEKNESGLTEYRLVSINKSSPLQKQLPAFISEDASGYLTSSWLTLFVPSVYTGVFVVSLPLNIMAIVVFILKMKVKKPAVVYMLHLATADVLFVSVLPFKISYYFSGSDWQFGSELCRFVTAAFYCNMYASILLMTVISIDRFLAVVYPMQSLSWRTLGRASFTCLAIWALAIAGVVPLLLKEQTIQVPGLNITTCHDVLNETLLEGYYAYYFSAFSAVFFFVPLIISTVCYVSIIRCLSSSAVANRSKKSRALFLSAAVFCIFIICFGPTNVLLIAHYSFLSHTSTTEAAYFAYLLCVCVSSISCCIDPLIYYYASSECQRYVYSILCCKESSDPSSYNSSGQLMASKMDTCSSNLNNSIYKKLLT
In words: Inhibitory concentration against potent thrombin receptor-1 (PAR-1) on human platelets; Inactive.

The species entered for assay [2] is Homo sapiens. The assay is described as follows: Inhibition of human platelet aggregation induced by thrombin. The class given is functional.
Assay [3] has as its target T1, Proteinase-activated receptor 1. The assay is described as follows: Inhibitory concentration against potent thrombin receptor-1 (PAR-1) on human platelets.
Assay [4] is filed under the species Homo sapiens. In words: Inhibition of human platelet aggregation induced by high affinity thrombin receptor agonist peptide( ha-TRAP). The class given is functional.

21 molecules from ChEMBL document CHEMBL1133830, “Potent, low molecular weight thrombin receptor antagonists” (Bioorg Med Chem Lett, 2001) can be followed below.

The IC50 is the concentration that gives 50% inhibition. Low readings indicate greater potency in that assay, high ones weaker potency in that assay.

Consider `Cc1ccc(C(=O)Cn2c(=O)n(Cc3ccccc3)c3ccccc32)cc1`, for which, in assay [1], the IC50 entry is “Not Active”.

In the case of `O=C(Cn1c(=O)n(Cc2ccccc2)c2ccccc21)c1ccc(Br)cc1`, the IC50 result in assay [1] was “Not Active”.

Take `O=C(Cn1c(=O)n(Cc2ccccc2)c2ccccc21)c1ccc(F)cc1`: the IC50 entry in assay [1] was “Not Active”.

Take `Cn1c(=O)n(CC(=O)c2cc(C(C)(C)C)c(O)c(C(C)(C)C)c2)c2ccccc21`: the IC50 entry in assay [1] is given as “Not Active”.

Turning to `Cc1cc(C(=O)Cn2c(=O)n(Cc3ccccc3)c3ccccc32)ccc1Cl`, the IC50 entry in assay [1] is recorded as “Not Active”.

Turning to `Cc1ccc(Cn2c(=N)n(CC(=O)c3cc(C(C)(C)C)c(O)c(C(C)(C)C)c3)c3ccccc32)cc1`, the IC50 was 1.5 µM in assay [2], 0.033 µM in assay [3] and 0.575 µM in assay [4].

With `CC(C)(C)c1ccc(Cn2c(=N)n(CC(=O)c3cc(C(C)(C)C)c(O)c(C(C)(C)C)c3)c3ccccc32)cc1`, in assay [3], half-maximal inhibition (IC50) was put at 0.734 µM.

The molecule `CC(C)(C)c1cc(C(=O)Cn2c(N)nc3ccccc32)cc(C(C)(C)C)c1O` had an IC50 in assay [3] of 1.5 µM.

The molecule `CCCCCCCn1c(=N)n(CC(=O)c2cc(C(C)(C)C)c(O)c(C(C)(C)C)c2)c2ccccc21` yielded an IC50 in assay [3] of 0.964 µM.

On to `COc1ccc(OC)c(C(=O)Cn2c(=O)n(Cc3ccccc3)c3ccccc32)c1`, for which the IC50 entry in assay [1] is reported as “Not Active”.

Turning to `CC(C)(C)c1cc(C(=O)Cn2c(=N)n(CCN3CCOCC3)c3ccccc32)cc(C(C)(C)C)c1O`, the values for the IC50 in assay [2], in assay [3] and in assay [4] were > 10 µM, 0.098 µM and 2 µM, respectively.

On to `Cc1ccc(C(=O)Cn2c(=O)n(Cc3ccccc3)c3ccccc32)c(C)c1`, for which the IC50 result in assay [1] is “Not Active”.

For the molecule `CC(C)(C)c1cc(C(=O)Cn2c(=N)n(Cc3ccc(Cl)c(Cl)c3)c3ccccc32)cc(C(C)(C)C)c1O`, the IC50 in assay [3] came out at 1.32 µM.

With `Cn1c(=N)n(CC(=O)c2cc(C(C)(C)C)c(O)c(C(C)(C)C)c2)c2ccccc21`, it took 0.9 µM to reach half-maximal inhibition in assay [3] (IC50).

With `O=C(Cn1c(=O)n(Cc2ccccc2)c2ccccc21)c1ccc(Cl)cc1Cl`, the IC50 entry in assay [1] is “Not Active”.

For `CCC(=O)c1cc(C(C)(C)C)c(O)c(C(C)(C)C)c1`, the IC50 entry in assay [1] was “Not Active”.

For the molecule `CCCCn1c(=N)n(CC(=O)c2cc(C(C)(C)C)c(O)c(C(C)(C)C)c2)c2ccccc21`, the values for the IC50 in assay [2], in assay [3] and in assay [4] were 10 µM, 0.359 µM and 0.825 µM, respectively.

In assay [3], `CC(C)(C)c1cc(C(=O)Cn2c(=N)n(CCN3CCCCC3)c3ccccc32)cc(C(C)(C)C)c1O` gave an IC50 of 2.87 µM. This counts as single-digit micromolar.

In the case of `CC(C)(C)c1cc(C(=O)Cn2c(=N)n(Cc3ccccc3)c3ccccc32)cc(C(C)(C)C)c1O`, the IC50 was found to be 0.6 µM in assay [2], 0.065 µM in assay [3] and 0.265 µM in assay [4].

For the molecule `N#Cc1ccc(C(=O)Cn2c(=O)n(Cc3ccccc3)c3ccccc32)cc1`, the IC50 entry in assay [1] is listed as “Not Active”.

Turning to `O=C(Cn1c(=O)n(Cc2ccccc2)c2ccccc21)c1ccc(O)c(O)c1`, in assay [1], the IC50 result is on record as “Not Active”.
